Laboratory results as given in US20240116985A1, “STAPLED PEPTIDES AND METHODS THEREOF” (priority 2020, published 2024).
Values after ≈ are worked out from the molar mass of the structure shown. Read-outs that look alike come from different tables or passages of the source.

Assays:
[1] = target: T1, full-length beta-Catenin (Uniprot ID P35222) (Homo sapiens, UniProt P35222); assay: Fluorescence polarization IC50 (beta-catenin / 5FAM-TCF4 10-53 competition); format: binding
T1 construct: 10 nM full-length beta-Catenin (Uniprot ID P35222)
T1 sequence (P35222 1-781): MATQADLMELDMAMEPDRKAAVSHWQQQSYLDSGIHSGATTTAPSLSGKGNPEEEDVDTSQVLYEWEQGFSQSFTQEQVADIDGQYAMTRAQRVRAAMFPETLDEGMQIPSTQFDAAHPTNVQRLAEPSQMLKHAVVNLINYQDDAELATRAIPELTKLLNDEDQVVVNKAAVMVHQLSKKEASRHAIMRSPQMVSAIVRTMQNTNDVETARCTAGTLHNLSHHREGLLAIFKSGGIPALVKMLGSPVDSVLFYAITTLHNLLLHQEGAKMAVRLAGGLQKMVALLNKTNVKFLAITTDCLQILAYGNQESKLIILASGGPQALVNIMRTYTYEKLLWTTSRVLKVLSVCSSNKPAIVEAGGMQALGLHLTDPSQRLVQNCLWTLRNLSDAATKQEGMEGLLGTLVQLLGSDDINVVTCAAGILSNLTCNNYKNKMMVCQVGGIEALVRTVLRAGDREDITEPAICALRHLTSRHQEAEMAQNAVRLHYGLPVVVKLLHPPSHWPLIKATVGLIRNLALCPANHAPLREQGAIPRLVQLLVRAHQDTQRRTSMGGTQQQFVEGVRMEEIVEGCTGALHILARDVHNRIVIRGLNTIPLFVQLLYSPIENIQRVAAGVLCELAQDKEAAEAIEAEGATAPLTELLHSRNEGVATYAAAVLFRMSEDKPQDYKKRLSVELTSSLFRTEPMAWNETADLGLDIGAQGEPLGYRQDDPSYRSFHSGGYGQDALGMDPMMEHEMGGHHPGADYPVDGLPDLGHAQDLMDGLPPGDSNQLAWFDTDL

[2] = Solubility in PBS; format: physicochemical
How it was run: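 The PBS solution was ultracentrifuged and the supernatant analyzed by HPLC. Its peak area was divided by that of a 50 μM peptide DMSO reference injection and multiplied by 50 uM to give solubility.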

[3] = CHI Log D procedure; format: physicochemical; settings: for chromatographic logD: pH 7.4, CHI Log D; for CHI Log D: pH 7.4
[4] = fluorescence polarization, beta-catenin, read-out: FP EC50

Row | IC50 ([1]; read-out: beta-Catenin FP IC50) | Solubility ([2]; Solubility (uM)) | chromatographic logD [3] | IC50 [1, 4] | Solubility [2] | CHI Log D [3] | SMILES
1 | 38 nM | 40 µM (≈ 86.6 µg/mL) | 2.49 | – | – | – | CC(=O)N1CCC[C@]12CC=CCCCC1(CCCC=CCCCOC(=O)N3CC[C@@](C(=O)N[C@@H](Cc4ccsc4)C(=O)N[C@@H](Cc4csc5ccccc45)C(=O)N[C@@H](CCC(N)=O)C(N)=O)(C3)NC(=O)[C@H](CC(N)=O)NC(=O)[C@H](Cc3ccccc3)NC(=O)[C@H](CCCCNC(=O)CCC34CC5CC(CC(C5)C3)C4)NC(=O)[C@H](C)NC(=O)[C@H](CC(=O)O)NC(=O)[C@H](CC(=O)O)NC1=O)NC(=O)[C@H](CC(C)(C)C)NC(=O)[C@H](CC(=O)O)NC2=O (stereo partly drawn) [I-901, Ac-PL3-Asp-Npg-B5-Asp-Asp-Ala-[AdamantPro]Lys-Phe-Asn-PyrS2-3Thi-BztA-Gln-NH2]
2 | 8 nM | 46 µM (≈ 100 µg/mL) | 1.92 | – | – | – | CC(=O)N1CCC[C@]12CC=CCCCC1(CCCC=CCCCOC(=O)N3CC[C@@](C(=O)N[C@@H](Cc4ccsc4)C(=O)N[C@@H](Cc4csc5ccccc45)C(=O)N[C@@H](CCC(N)=O)C(=O)N[C@@H](CCCCNC(=O)CN4CCOCC4)C(N)=O)(C3)NC(=O)[C@H](CC(N)=O)NC(=O)[C@H](Cc3ccccc3)NC(=O)[C@H](C)NC(=O)[C@H](C)NC(=O)[C@H](CC(=O)O)NC(=O)[C@H](CC(=O)O)NC1=O)NC(=O)[C@H](CC(C)(C)C)NC(=O)[C@H](CC(=O)O)NC2=O (stereo partly drawn) [I-905, Ac-PL3-Asp-Npg-B5-Asp-Asp-Ala-Ala-Phe-Asn-PyrS2-3Thi-BztA-Gln-[Morph Ac]Lys-NH2]
3 | 10 nM | 45 µM (≈ 102 µg/mL) | 1.83 | – | – | – | COCCOCCOCCOCCC(=O)NCCCC[C@H](NC(=O)[C@H](CCC(N)=O)NC(=O)[C@H](Cc1csc2ccccc12)NC(=O)[C@H](Cc1ccsc1)NC(=O)[C@]12CCN(C1)C(=O)OCCCC=CCCCC1(CCCC=CC[C@]3(CCCN3C(C)=O)C(=O)N[C@@H](CC(=O)O)C(=O)N[C@@H](CC(C)(C)C)C(=O)N1)C(=O)N[C@@H](CC(=O)O)C(=O)N[C@@H](CC(=O)O)C(=O)N[C@@H](C)C(=O)N[C@@H](C)C(=O)N[C@@H](Cc1ccccc1)C(=O)N[C@@H](CC(N)=O)C(=O)N2)C(N)=O (stereo partly drawn) [I-912, Ac-PL3-Asp-Npg-B5-Asp-Asp-Ala-Ala-Phe-Asn-PyrS2-3Thi-BztA-Gln-[mPEG4]Lys-NH2]
4 | 16 nM | 46 µM (≈ 112 µg/mL) | 1.82 | – | – | – | COCCOCCOCCOCCOCCOCCOCCOCCC(=O)NCCCC[C@H](NC(=O)[C@H](CCC(N)=O)NC(=O)[C@H](Cc1csc2ccccc12)NC(=O)[C@H](Cc1ccsc1)NC(=O)[C@]12CCN(C1)C(=O)OCCCC=CCCCC1(CCCC=CC[C@]3(CCCN3C(C)=O)C(=O)N[C@@H](CC(=O)O)C(=O)N[C@@H](CC(C)(C)C)C(=O)N1)C(=O)N[C@@H](CC(=O)O)C(=O)N[C@@H](CC(=O)O)C(=O)N[C@@H](C)C(=O)N[C@@H](C)C(=O)N[C@@H](Cc1ccccc1)C(=O)N[C@@H](CC(N)=O)C(=O)N2)C(N)=O (stereo partly drawn) [I-914, Ac-PL3-Asp-Npg-B5-Asp-Asp-Ala-Ala-Phe-Asn-PyrS2-3Thi-BztA-Gln-[mPEG8]Lys-NH2]
5 | 28 nM | 45 µM (≈ 99 µg/mL) | 2.33 | – | – | – | CC(=O)N1CCC[C@]12CC=CCCCC1(CCCC=CCCCOC(=O)N3CC[C@@](C(=O)N[C@@H](Cc4ccsc4)C(=O)N[C@@H](Cc4csc5ccccc45)C(=O)N[C@@H](CCC(N)=O)C(=O)N[C@@H](CCCCNC(=O)c4cccc5ccccc45)C(N)=O)(C3)NC(=O)[C@H](CC(N)=O)NC(=O)[C@H](Cc3ccccc3)NC(=O)[C@H](C)NC(=O)[C@H](C)NC(=O)[C@H](CC(=O)O)NC(=O)[C@H](CC(=O)O)NC1=O)NC(=O)[C@H](CC(C)(C)C)NC(=O)[C@H](CC(=O)O)NC2=O (stereo partly drawn) [I-916, Ac-PL3-Asp-Npg-B5-Asp-Asp-Ala-Ala-Phe-Asn-PyrS2-3Thi-BztA-Gln-[1Napc]Lys-NH2]
6 | 1740 nM | – | – | 1740 nM | 45 µM (≈ 89.5 µg/mL) | 2.055 | CC(=O)N1CCC[C@]12CC=CCCCC1(CCCC=CCCCOC(=O)N3CC[C@@](C(=O)N[C@@H](Cc4ccsc4)C(=O)N[C@@H](Cc4csc5ccccc45)C(=O)N[C@@H](CO)C(N)=O)(C3)NC(=O)[C@H](CC(N)=O)NC(=O)[C@H](Cc3ccccc3)NC(=O)[C@H](C)NC(=O)[C@H](C)NC(=O)[C@H](CN(CC(=O)O)CC(F)(F)F)NC(=O)[C@H](CC(=O)O)NC1=O)NC(=O)[C@H](CC(C)(C)C)NC(=O)[C@H](CC(=O)O)NC2=O (stereo partly drawn) [I-940, Ac-PL3-Asp-Npg-B5-Asp-TfeGA-Ala-Ala-Phe-Asn-PyrS2-3Thi-BztA-Ser-NH2]
7 | 2110 nM | – | – | 2110 nM | 46 µM (≈ 91.5 µg/mL) | 2.011 | CC(=O)N1CCC[C@]12CC=CCCCC1(CCCC=CCCCOC(=O)N3CC[C@@](C(=O)N[C@@H](Cc4ccsc4)C(=O)N[C@@H](Cc4csc5ccccc45)C(=O)N[C@@H](CO)C(N)=O)(C3)NC(=O)[C@H](CC(N)=O)NC(=O)[C@H](Cc3ccccc3)NC(=O)[C@H](C)NC(=O)[C@H](C)NC(=O)[C@H](CN(CC(=O)O)CC(F)(F)F)NC(=O)[C@H](CC(=O)O)NC1=O)NC(=O)[C@H](CC(C)(C)C)NC(=O)[C@H](CC(=O)O)NC2=O (stereo partly drawn) [I-941, Ac-PL3-Asp-Npg-B5-Asp-TfeGA-Ala-Ala-Phe-Asn-PyrS2-3Thi-BztA-Ser-NH2]
8 | 1280 nM | – | – | 1280 nM | 46 µM (≈ 92.1 µg/mL) | 1.984 | CC(=O)N1CCC[C@]12CC=CCCCC1(CCCC=CCCCOC(=O)N3CC[C@@](C(=O)N[C@@H](Cc4ccsc4)C(=O)N[C@@H](Cc4csc5ccccc45)C(=O)N[C@H](C(N)=O)[C@@H](C)O)(C3)NC(=O)[C@H](CC(N)=O)NC(=O)[C@H](Cc3ccccc3)NC(=O)[C@H](C)NC(=O)[C@H](C)NC(=O)[C@H](CN(CC(=O)O)CC(F)(F)F)NC(=O)[C@H](CC(=O)O)NC1=O)NC(=O)[C@H](CC(C)(C)C)NC(=O)[C@H](CC(=O)O)NC2=O (stereo partly drawn) [I-942, Ac-PL3-Asp-Npg-B5-Asp-TfeGA-Ala-Ala-Phe-Asn-PyrS2-3Thi-BztA-Thr-NH2]
9 | 1990 nM | – | – | 1990 nM | 49 µM (≈ 98.1 µg/mL) | 2.071 | CC(=O)N1CCC[C@]12CC=CCCCC1(CCCC=CCCCOC(=O)N3CC[C@@](C(=O)N[C@@H](Cc4ccsc4)C(=O)N[C@@H](Cc4csc5ccccc45)C(=O)N[C@H](C(N)=O)[C@@H](C)O)(C3)NC(=O)[C@H](CC(N)=O)NC(=O)[C@H](Cc3ccccc3)NC(=O)[C@H](C)NC(=O)[C@H](C)NC(=O)[C@H](CN(CC(=O)O)CC(F)(F)F)NC(=O)[C@H](CC(=O)O)NC1=O)NC(=O)[C@H](CC(C)(C)C)NC(=O)[C@H](CC(=O)O)NC2=O (stereo partly drawn) [I-943, Ac-PL3-Asp-Npg-B5-Asp-TfeGA-Ala-Ala-Phe-Asn-PyrS2-3Thi-BztA-Thr-NH2]
10 | 798 nM | – | – | 798 nM | 47 µM (≈ 94.7 µg/mL) | 2.209 | CC(=O)N1CCC[C@]12CC=CCCCC1(CCCC=CCCCOC(=O)N3CC[C@@](C(=O)N[C@@H](Cc4ccsc4)C(=O)N[C@@H](Cc4csc5ccccc45)C(=O)N[C@@H](CC(C)C)C(N)=O)(C3)NC(=O)[C@H](CC(N)=O)NC(=O)[C@H](Cc3ccccc3)NC(=O)[C@H](C)NC(=O)[C@H](C)NC(=O)[C@H](CN(CC(=O)O)CC(F)(F)F)NC(=O)[C@H](CC(=O)O)NC1=O)NC(=O)[C@H](CC(C)(C)C)NC(=O)[C@H](CC(=O)O)NC2=O (stereo partly drawn) [I-946, Ac-PL3-Asp-Npg-B5-Asp-TfeGA-Ala-Ala-Phe-Asn-PyrS2-3Thi-BztA-Leu-NH2]
